Tests used:
[1] = system: Fusarium oxysporum f. sp. cubense; assay: Antifungal activity against soil-borne Fusarium oxysporum f. sp. cubense race 4 assessed as growth inhibition at 50 uL at 28 degC for 4 days; format: functional
Ralstonia solanacearum = assay: Antibacterial activity against Ralstonia solanacearum race 1 assessed as growth inhibition at 50 uL at 28 degC for 3 days; format: functional

Structure (SMILES)	diameter of the inhibition zone (DIZ) [1]	diameter of the inhibition zone (DIZ) (Ralstonia solanacearum)
CCC(C)CCCCCCCCC1CC(=O)N[C@@H](CC(=O)O)C(=O)N[C@H](Cc2ccc(O)cc2)C(=O)N[C@H](CC(N)=O)C(=O)N2CCC[C@H]2C(=O)N[C@@H](CCC(=O)O)C(=O)N[C@H](CO)C(=O)N[C@@H]([C@@H](C)O)C(=O)N1 (stereo not given in full) [BACILLOMYCIN D(C15)]	0.7 cm	
C[C@@H]1CCC/C=C/C=C/[C@H](O)C[C@@H](O)C/C=C\C=C\[C@@H](OC(=O)CCC(=O)O)C/C=C/C=C\C(=O)O1 [7-O-SUCCINYL MACROLACTIN A]		1.3 cm
C[C@@H]1CCC/C=C/C=C/[C@H](O)C[C@@H](O)C/C=C\C=C\[C@@H](O)C/C=C/C=C\C(=O)O1 [MACROLACTIN A]		1.2 cm
CC(C)CCCCCCCCC1CC(=O)N[C@@H](CC(=O)O)C(=O)N[C@H](Cc2ccc(O)cc2)C(=O)N[C@H](CC(N)=O)C(=O)N2CCC[C@H]2C(=O)N[C@@H](CCC(=O)O)C(=O)N[C@H](CO)C(=O)N[C@@H]([C@@H](C)O)C(=O)N1 (stereo not given in full) [BACILLOMYCIN D(C14)]	0.6 cm	
C[C@@H]1CCC/C=C/C=C/[C@H](O)C[C@@H](O)C/C=C\C=C\[C@@H](OC(=O)CC(=O)O)C/C=C/C=C\C(=O)O1 [7-O-MALONYL MACROLACTIN A]		1 cm

From ChEMBL document CHEMBL3045778, “Production of bacillomycin- and macrolactin-type antibiotics by Bacillus amyloliquefaciens NJN-6 for suppressing soilborne plant pathogens” (2012)
